Assay results taken from ChEMBL document CHEMBL1131694, “New minimal substrate structural requirements in the enzymatic peroxidation of alkenes with soybean lipoxygenase” (Bioorg Med Chem Lett, 1999).
Each block holds one compound with its values, some of them ahead of it. Active and inactive are the calls of the source. The rule behind the calls is not given here.

What was measured:
[1] = molecular target: T1, Seed linoleate 13S-lipoxygenase-1 (Glycine max) (UniProt P08170); assay: Ratio of proximal to distal region oxidation by 1-lipoxygenase isolated from soybean; Ratio of proximal and distal was 1:99
T1 sequence (whole entry): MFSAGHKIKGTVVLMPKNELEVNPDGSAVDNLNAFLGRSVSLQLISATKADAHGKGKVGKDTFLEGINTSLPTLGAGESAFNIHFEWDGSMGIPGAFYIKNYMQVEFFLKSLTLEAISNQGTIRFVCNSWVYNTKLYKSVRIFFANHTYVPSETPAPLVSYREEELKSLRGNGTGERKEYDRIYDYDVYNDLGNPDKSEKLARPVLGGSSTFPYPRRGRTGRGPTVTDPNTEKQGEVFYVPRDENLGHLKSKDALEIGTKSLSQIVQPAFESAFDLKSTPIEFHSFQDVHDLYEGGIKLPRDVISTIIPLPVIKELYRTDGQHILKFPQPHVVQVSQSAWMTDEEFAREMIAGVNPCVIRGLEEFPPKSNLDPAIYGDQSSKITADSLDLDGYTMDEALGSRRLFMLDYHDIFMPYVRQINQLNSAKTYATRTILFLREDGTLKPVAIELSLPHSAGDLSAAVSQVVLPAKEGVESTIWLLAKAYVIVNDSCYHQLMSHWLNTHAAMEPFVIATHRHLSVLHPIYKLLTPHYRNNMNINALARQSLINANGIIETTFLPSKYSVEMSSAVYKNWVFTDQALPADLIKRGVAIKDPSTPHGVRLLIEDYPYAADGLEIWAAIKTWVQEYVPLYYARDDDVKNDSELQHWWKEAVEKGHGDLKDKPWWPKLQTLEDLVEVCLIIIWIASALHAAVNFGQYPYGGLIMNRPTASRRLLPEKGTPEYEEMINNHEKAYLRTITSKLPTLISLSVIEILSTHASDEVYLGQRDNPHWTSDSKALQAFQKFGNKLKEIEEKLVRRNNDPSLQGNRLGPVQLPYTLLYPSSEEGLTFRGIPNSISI

[2] = molecular target: T1, Seed linoleate 13S-lipoxygenase-1 (Glycine max); assay: Ratio of proximal to distal region oxidation by 1-lipoxygenase isolated from soybean; Ratio of proximal and distal was 50:50
[3] = molecular target: T1, Seed linoleate 13S-lipoxygenase-1 (Glycine max); assay: Ratio of proximal to distal region oxidation by 1-lipoxygenase isolated from soybean; Ratio of proximal and distal was 95:5
[4] = Partition coefficient (logP); type: physicochemical; conditions: octanol/water
[5] = molecular target: T1, Seed linoleate 13S-lipoxygenase-1 (Glycine max); assay: Ratio of proximal to distal region oxidation by 1-lipoxygenase isolated from soybean; Ratio of proximal and distal was 76:24
[6] = molecular target: T1, Seed linoleate 13S-lipoxygenase-1 (Glycine max); assay: Ratio of proximal to distal region oxidation by 1-lipoxygenase isolated from soybean; Ratio of proximal and distal was 25:75
[7] = molecular target: T1, Seed linoleate 13S-lipoxygenase-1 (Glycine max)
[8] = molecular target: T1, Seed linoleate 13S-lipoxygenase-1 (Glycine max); assay: Ratio of proximal to distal region oxidation by 1-lipoxygenase isolated from soybean; Ratio of proximal and distal was 35:65
[9] = molecular target: T1, Seed linoleate 13S-lipoxygenase-1 (Glycine max); assay: Ratio of proximal to distal region oxidation by 1-lipoxygenase isolated from soybean; Ratio of proximal and distal was 10:90
[10] = molecular target: T1, Seed linoleate 13S-lipoxygenase-1 (Glycine max); assay: Ratio of proximal to distal region oxidation by 1-lipoxygenase isolated from soybean; Ratio of proximal and distal was 87:13
[11] = molecular target: T1, Seed linoleate 13S-lipoxygenase-1 (Glycine max); assay: Ratio of proximal to distal region oxidation by 1-lipoxygenase isolated from soybean; Ratio of proximal and distal was 99:1
[12] = molecular target: T1, Seed linoleate 13S-lipoxygenase-1 (Glycine max); assay: Ratio of proximal to distal region oxidation by 1-lipoxygenase isolated from soybean; Ratio of proximal and distal was 89:11

Structure (SMILES): CCCCCCCC/C=C\C/C=C\CCOC(=O)CCCCC(=O)O
Regiospecificity [2]: Ratio of proximal and distal was 50:50

Structure (SMILES): CCCCC/C=C\C/C=C\CCOC(=O)CCCCC(=O)O
Regiospecificity [3]: Ratio of proximal and distal was 95:5

Structure (SMILES): [N-]=[N+]=NCC/C=C/C=C/[C@@H](O)CCO
logP ([4]; read-out: logP): 6.1

Structure (SMILES): CCCC/C=C\C=C\[C@@H](O)CCO
logP ([4]; read-out: logP): 2.82

Structure (SMILES): CCCCCCCCC/C=C\C/C=C\CCOC(=O)CCCCC(=O)O
Regiospecificity [8]: Ratio of proximal and distal was 35:65

Structure (SMILES): CCCCCCCC/C=C\C=C\[C@@H](O)CCO
logP ([4]; read-out: logP): 4.41

Structure (SMILES): CCCCC/C=C\C/C=C\CCOC(=O)COCCO
Regiospecificity [11]: Ratio of proximal and distal was 99:1

The next lines start with the values.

Regiospecificity [1]: Ratio of proximal and distal was 1:99
Structure (SMILES): CC(C)=CCC/C(C)=C/C/C=C\C/C=C\CCOC(=O)CCCCC(=O)O

Regiospecificity [5]: Ratio of proximal and distal was 76:24
Structure (SMILES): CCCCCCC/C=C\C/C=C\CCOC(=O)CCCCC(=O)O

Regiospecificity [6]: Ratio of proximal and distal was 25:75
Structure (SMILES): CCCCCCCCCC/C=C\C/C=C\CCOC(=O)CCCCC(=O)O

logP [4]: 3.7
Structure (SMILES): CC(C)=CCC/C(C)=C/C/C=C\C=C\[C@@H](O)CCO

Regiospecificity [7]: Active
Structure (SMILES): CCCCC/C=C\C/C=C\CCCCCCCC(=O)O

Regiospecificity [9]: Ratio of proximal and distal was 10:90
Structure (SMILES): CCCCCCCC/C=C\C/C=C\CCOC(=O)COCCO

Regiospecificity [1]: Ratio of proximal and distal was 1:99
Structure (SMILES): CC(C)=CCC/C(C)=C/C/C=C\C/C=C\CCOC(=O)COCCO

Regiospecificity [10]: Ratio of proximal and distal was 87:13
Structure (SMILES): CCCCCC/C=C\C/C=C\CCOC(=O)CCCCC(=O)O

Regiospecificity [12]: Ratio of proximal and distal was 89:11
Structure (SMILES): [N-]=[N+]=NCC/C=C\C/C=C\CCOC(=O)COCCO
